The values that follow come from US20070167408A1, “NOVEL ALKYL PHOSPHOLIPID DERIVATIVES WITH REDUCED CYTOTOXICITY AND USES THEREOF” (ZENTARIS GmbH, priority 2005, published 2007).

What is called MIC is the lowest concentration found to suppress growth. Higher therefore signals a need for much substance.

Holding throughout (format): cell-based
Experiment [1] concerns Aspergillus fumigatus ATCC 204305. Put plainly: Anti-fungal broth microdilution (MIC), fungus A. Particulars: filamentous protocol, more than 50% growth inhibition, 48 to 72 h. On the procedure: (§1) Anti-fungal activity of selected compounds of the invention was assessed by means of anti-fungal susceptibility tests as follows.
(§2) The antifungal activities of the compounds of the invention against different fungi were measured according to standard broth microdilution methods of the US National Committee for Clinical Laboratory standards (NCCLS) for yeasts (NCCLS document M27-A, 1997) and filamentous fungi (NCCLS document M38-A, 2002).
(§3) Stock solutions of compounds of the invention were freshly prepared on the days of experiments equal to 1.28 mg/10 ml media. Serial dilutions were performed to achieve the following testing concentrations: 64 μg/ml, 32 μg/ml, 16 μg/ml, 8 μg/ml, 4 μg/ml, 2 μg/ml, 1 μg/ml, 0.5 μg/ml, 0.25 μg/ml and 0.125 μg/ml.
(§4) An inoculum of 10^6 CFU/ml of the fungi strain was prepared in the appropriate medium and transferred to test tubes for incubation.
(§5) The method is used to determine the minimum inhibitory concentrations (MIC) of drugs on fungi strains. […] For the filamentous fungi protocol, MIC determination took place after 48 to 72 h of culture at 35° C. and was defined at that concentration which produced more than 50% visible growth inhibition.
A general note: In broth dilution the organism is exposed to a series of concentrations in liquid medium.

The test system of experiment [2] is Cryptococcus gattii ATCC 32608. Put plainly: Anti-fungal broth microdilution (MIC), fungus J. Particulars: yeast protocol, more than 80% inhibition, 48 h. On the procedure:
as §1, §2, §3, §4, §5

For experiment [3], the system named is Aspergillus fumigatus 322-384. Put plainly: Anti-fungal broth microdilution (MIC), fungus B. Particulars: filamentous protocol, more than 50% growth inhibition, 48 to 72 h. On the procedure: as §1, §2, §3, §4, §5
Experiment [4] has as its system Candida albicans TS3. Put plainly: Anti-fungal broth microdilution (MIC), fungus F. Particulars: yeast protocol, more than 80% inhibition, 48 h. On the procedure:
as §1, §2, §3, §4, §5

Experiment [5] has as its system Cryptococcus neoformans H99. Put plainly: Anti-fungal broth microdilution (MIC), fungus I. Particulars: yeast protocol, more than 80% inhibition, 48 h. The procedure:
as §1, §2, §3, §4, §5

Experiment [6] has as its system Candida albicans ATCC 10231. The experiment in a line: Anti-fungal broth microdilution (MIC), fungus D. Particulars: yeast protocol, more than 80% inhibition, 48 h. The procedure:
as §1, §2, §3, §4, §5

In experiment [7] the test system is Candida albicans ATCC 90028. Put plainly: Anti-fungal broth microdilution (MIC), fungus E. Particulars: yeast protocol, more than 80% inhibition, 48 h. On the procedure: as §1, §2, §3, §4, §5
Experiment [8] relates to Aspergillus fumigatus 040-200167. Put plainly: Anti-fungal broth microdilution (MIC), fungus C. Particulars: filamentous protocol, more than 50% growth inhibition, 48 to 72 h. On the procedure: as §1, §2, §3, §4, §5
For experiment [9], the system named is Candida parapsilosis ATCC 22019. Put plainly: Anti-fungal broth microdilution (MIC), fungus G. As to conditions: yeast protocol, more than 80% inhibition, 48 h. The procedure:
as §1, §2, §3, §4, §5

The test system of experiment [10] is Cryptococcus neoformans ATCC 90112. The experiment in a line: Anti-fungal broth microdilution (MIC), fungus H. Particulars: yeast protocol, more than 80% inhibition, 48 h. On the procedure:
as §1, §2, §3, §4, §5

Experiment [11] has as its system PC3 (human prostate carcinoma) cells. Put plainly: XTT cytotoxicity assay, PC3 cells. As to conditions: Homo sapiens, PC-3; XTT, 48 h exposure; read-out: PC3 [IC50 (μM)]. On the procedure: (§6) Cytotoxicity of selected compounds of the invention against different mammalian cell lines was assessed as follows.
(§7) Human tumor cell lines KB/HeLa (ATCC CCL17, human cervix carcinoma), PC3 (ATCC CRL1435, human prostate carcinoma) and RKOp21 (human colon adenocarcinoma; Schmidt et al., Oncogene 2000, 19: 2423-2429) cells were used in an automated XTT screening assay for the assessment of cytotoxicity.
(§8) The XTT assay quantifies cellular metabolic activity which correlates with cell viability and cell number. Test compounds (selected compounds of the invention and known substances as controls) are dissolved in culture medium at 600 μM and added to the tumor cells in 10 different concentrations in a semi-logarithmic fashion starting from 100 μM as highest concentration.
(§9) In a second set of experiments employing PC3, RKOp21 and SKOV-3 (ATCC HTB-77, human ovary adenocarcinoma) cells, test and reference compounds were dissolved in 70% Ethanol/30% H2O in a stock concentration of 10 mM and diluted in cell culture medium to yield either 31.6 μM (PC3 and RKOp21) or 100 μM (SKOV-3) final concentration.
(§10) 48 h later cellular metabolic activity of cells treated with test compounds is quantified by measurement of the absorbance at 490 nm (conversion of XTT dye) in comparison to untreated control cells (100% viability).
(§11) KB/HeLa and PC3 cells were cultivated in RPMI 1640 medium (Gibco, Cat. No. 42401-018) supplemented with 10% heat inactivated fetal calf serum (FCS, Biochrom AG, Cat. No. S0115), 2 mM L-glutamine (Gibco, Cat. No. 25030-24) and 2% Penicillin-Streptomycin (PenStrep, Gibco, Cat. No. 15140-122). RKOp21 cells were grown in DMEM+GlutaMAXTM-I medium (Gibco, Cat. No. 61965-026) supplemented with 10% heat inactivated fetal calf serum (FCS, Biochrom AG, Cat. No. S0115), 2 mM L-glutamine (Gibco, Cat. No. 25030-24), 2% Penicillin-Streptomycin (PenStrep, Gibco, Cat. No. 15140-122) and 1% 1M HEPES (Gibco, Cat. No. 15630-056). All cells were cultured at 37° C. in 5% CO2 humidified air.
(§12) On the first day of the experiment cells were harvested from exponential phase cultures by trypsination, counted and plated into 96 well flat-bottom micro titer plates depending on the cell line as listed below:
(§13) After a 24 h recovery to allow the cells to resume exponential growth, the test compounds were diluted immediately prior to use and transferred in 25 μl volume to the wells.
(§14) Following 2 days of continuous drug exposure 50 μl of freshly prepared XTT-PMS solution {2% 0.386 mg/ml PMS (N-Methyl Dibenzopyrazine Methylsulphate; Sigma, Cat. No. P9625) in PBS+98% 1 mg/ml XTT (Sodium 2,3-bis(2-methoxy-4-nitro-5-sulfophenyl)-5-[(phenylamino)carbonyl]-2H-Tetrazolium; Serva, Cat. No. 38450) in RPMI 1640 medium without phenol red} was added to the wells. To measure the proportion of living cells, the cells were incubated for 3 h with XTT-PMS reagent at 37° C., 5% CO2, humidified atmosphere allowing to form the formazan salt. The amount of soluble formazan salt produced by cellular reduction of XTT is quantified by measuring the absorbance at 490 nm using the Biomek® 2000 ELISA plate reader. %-inhibition (cytotoxicity) of each test compound was calculated in relation to untreated control cells. Inhibition curves were generated and IC50 values calculated by using GraphPad Prism.

The test system of experiment [12] is RKOp21 (human colon adenocarcinoma) cells. Put plainly: XTT cytotoxicity assay, RKOp21 cells. Particulars: Homo sapiens; XTT, 48 h exposure; read-out: RKOp21 [IC50 (μM)]. The procedure: as §6, §7, §8, §9, §10, §11, §12, §13, §14
(Tetrazolium dyes change colour on reduction, which living cells bring about.)

The subject of experiment [13] is KB/HeLa (human cervix carcinoma) cells. Put plainly: XTT cytotoxicity assay, KB/HeLa cells. Particulars: Homo sapiens, HeLa; XTT, 48 h exposure; read-out: KB/HELA [IC50 (μM)]. On the procedure:
as §6, §7, §8, §10, §11, §12, §13, §14

Experiment [14] concerns Moraxella catarrhalis DMS 11994 (ATCC 43617). The experiment in a line: Anti-bacterial bouillon microdilution assay (MIC), bacterium D. As to conditions: ATCC43617, 24 h. On the procedure:
Selected compounds of the invention were tested in a bouillon microdilution assay method according to the DIN 58940 (www.din.de) guidelines for determination of susceptibility of bacterial strains with regard to cell growth inhibition. The assay method quantifies bacterial cell growth which corresponds to the turbidity of the liquid culture medium by photometric measurement carried out at 595 nm.
The method of MIC determination was performed according to DIN 58940-5. The volumina were adapted according to the microdilution method as described in DIN 58940-7 guideline.
Dependent on water solubility, compounds of the invention were dissolved either in water or ethanol in a concentration of 10 mg/ml. Subsequently, the stock was further diluted in water to a concentration of 512 μg/ml. The following serial dilutions (factor 2) were performed in water resulting in the following […] testing concentrations: 256 μg/ml, 128 μg/ml, 64 μg/ml, 32 μg/ml, 16 μg/ml, 8 μg/ml, 4 μg/ml, 2 μg/ml, 1 μg/ml, 0.5 μg/ml, 0.25 μg/ml and 0.125 μg/ml. Diluted compounds of the invention were transferred in 100 μl volume to the microtiter plate wells.
Pre-cultures of bacteria were grown in appropriate liquid media (refer to ATCC webpage, www.atcc.org) and afterwards were inoculated in corresponding liquid medium. 100 μl of the inoculums [adjusted to an amount of app. 1×10^6 microorganisms per ml (range of 10^5-10^8 microorganisms per ml)] were added to each of the testing compound concentrations and cultivated under the appropriate conditions.
Before and after incubation, bacterial growth was determined by photometric analysis against a positive control containing growing bacteria without compound and a sterile/negative control containing only the medium.

Converted amounts (≈) assume the structure as drawn.

Take `CCCCCCCCCCCCCCCCOCCCOP(=O)([O-])OCC[N+](C)(C)C` [Compound 8, Phosphoric acid 3-hexadecyloxy-propyl ester 2-trimethyl-ammonium-ethyl ester]: the MIC was 2 mg/L in experiment [1] (Aspergillus fumigatus, ATCC204305); 0.75 mg/L in experiment [2]; 2 mg/L in experiment [3] (Aspergillus fumigatus, 322384); 1 mg/L in experiment [4]; 1.5 mg/L in experiment [5]; 0.75 mg/L in experiment [6]. In addition, the MIC was determined as 0.75 mg/L in [7]; 2 mg/L in experiment [8] (Aspergillus fumigatus, 040200167); 0.75 mg/L in [9]; 2 mg/L in experiment [10].

With `CCCCCCCCCCCCCCCCCCOP(=O)([O-])OCC[As+](C)(C)C` [Compound 22, Phosphoric acid octadecyl ester 2-(N,N,N-trimethyl-arsen)-ethyl ester], the “MIC, fungus A” value in experiment [1] is 3 mg/L. Besides, the “MIC, fungus J” value in experiment [2] was 0.5 mg/L. Moreover, the “MIC, fungus B” value in experiment [3] turned out to be 2 mg/L. Besides, in [4], the “MIC, fungus F” value turned out to be 1 mg/L. For the same molecule, the “MIC, fungus I” value in [5] is 6.6 mg/L. Besides, the “MIC, fungus D” value in [6] stood at 0.5 mg/L. The “MIC, fungus E” value in experiment [7] was determined as 1 mg/L. In addition, in experiment [8], the “MIC, fungus C” value turned out to be 3 mg/L. Besides, the “MIC, fungus G” value in experiment [9] is 1 mg/L. The “MIC, fungus H” value in experiment [10] came out at 1.5 mg/L.

With `CCCCCCCCCCCCCCCCCCOP(=O)(O)OCCn1ccnc1` [Compound 67], the IC50 in [11], in experiment [12] and in experiment [13] was greater than 100 µM in each case. The MIC in [14] was found to be 8 mg/L (≈ 18 µM).
